Results: ChEMBL document CHEMBL3046161, “Synthesis of potential antitubercular and antimicrobial s-triazine-based scaffolds via Suzuki cross-coupling reaction” (2013)
Converted amounts (≈) assume the structure as drawn.

Assays:
Assay type in all cases: functional
Salmonella typhi [1] = test: Antibacterial activity against Salmonella enterica subsp. enterica serovar Typhi MTCC 733 assessed as growth inhibition at 3.12 to 50 ug/mL after 24 hr by agar disk diffusion method
Klebsiella pneumoniae [2] = test: Antibacterial activity against Klebsiella pneumoniae MTCC 109 assessed as growth inhibition at 3.12 to 50 ug/mL after 24 hr by agar disk diffusion method
Klebsiella pneumoniae [3] = test: Antibacterial activity against Klebsiella pneumoniae MTCC 109 assessed as growth inhibition after 24 hr by agar streak dilution method; conditions: MTCC 109, 24 h
Salmonella typhi [4] = test: Antibacterial activity against Salmonella enterica subsp. enterica serovar Typhi MTCC 733 assessed as growth inhibition after 24 hr by agar streak dilution method; conditions: MTCC 733, 24 h
Pseudomonas aeruginosa [5] = test: Antibacterial activity against Pseudomonas aeruginosa MTCC 741 assessed as growth inhibition after 24 hr by agar streak dilution method; conditions: MTCC 741, 24 h
Escherichia coli [6] = test: Antibacterial activity against Escherichia coli MTCC 739 assessed as growth inhibition after 24 hr by agar streak dilution method; conditions: MTCC 739, 24 h
Bacillus cereus [7] = test: Antibacterial activity against Bacillus cereus MTCC 430 assessed as growth inhibition after 24 hr by agar streak dilution method; conditions: MTCC 430, 24 h
Staphylococcus aureus [8] = test: Antibacterial activity against Staphylococcus aureus MTCC 96 assessed as growth inhibition after 24 hr by agar streak dilution method; conditions: MTCC 96, 24 h
[9] = system: Mycobacterium tuberculosis; test: Antimycobacterial activity against Mycobacterium tuberculosis H37Rv assessed as growth inhibition at MIC after 12 to 28 days by Lowenstein and Jensen agar dilution method
[10] = system: Mycobacterium tuberculosis; test: Antimycobacterial activity against Mycobacterium tuberculosis H37Rv assessed as growth inhibition after 12 to 28 days by Lowenstein and Jensen agar dilution method
[11] = system: Mycobacterium tuberculosis; test: Antimycobacterial activity against Mycobacterium tuberculosis H37Rv assessed as growth inhibition measured within 10 days by BACTEC MGIT method; conditions: 240 h
Candida albicans [12] = test: Antifungal activity against Candida albicans MTCC 183 assessed as growth inhibition at 3.12 to 50 ug/mL after 24 hr by agar disk diffusion method
Aspergillus clavatus [13] = test: Antifungal activity against Aspergillus clavatus MTCC 1323 assessed as growth inhibition at 3.12 to 50 ug/mL after 24 hr by agar disk diffusion method
Aspergillus fumigatus [14] = test: Antifungal activity against Aspergillus fumigatus MTCC 343 assessed as growth inhibition at 3.12 to 50 ug/mL after 24 hr by agar disk diffusion method
Aspergillus niger [15] = test: Antifungal activity against Aspergillus niger MTCC 282 assessed as growth inhibition at 3.12 to 50 ug/mL after 24 hr by agar disk diffusion method
Candida albicans [16] = test: Antifungal activity against Candida albicans MTCC 183 assessed as growth inhibition after 48 hr by agar streak dilution method; conditions: MTCC 183, 48 h
Aspergillus clavatus [17] = test: Antifungal activity against Aspergillus clavatus MTCC 1323 assessed as growth inhibition after 48 hr by agar streak dilution method; conditions: MTCC 1323, 48 h
Aspergillus fumigatus [18] = test: Antifungal activity against Aspergillus fumigatus MTCC 343 assessed as growth inhibition after 48 hr by agar streak dilution method; conditions: MTCC 343, 48 h
Aspergillus niger [19] = test: Antifungal activity against Aspergillus niger MTCC 282 assessed as growth inhibition after 48 hr by agar streak dilution method; conditions: MTCC 282, 48 h
Shigella flexneri [20] = test: Antibacterial activity against Shigella flexneri MTCC 1457 assessed as growth inhibition at 3.12 to 50 ug/mL after 24 hr by agar disk diffusion method
Proteus vulgaris [21] = test: Antibacterial activity against Proteus vulgaris MTCC 1771 assessed as growth inhibition at 3.12 to 50 ug/mL after 24 hr by agar disk diffusion method
Pseudomonas aeruginosa [22] = test: Antibacterial activity against Pseudomonas aeruginosa MTCC 741 assessed as growth inhibition at 3.12 to 50 ug/mL after 24 hr by agar disk diffusion method
Escherichia coli [23] = test: Antibacterial activity against Escherichia coli MTCC 739 assessed as growth inhibition at 3.12 to 50 ug/mL after 24 hr by agar disk diffusion method
Bacillus cereus [24] = test: Antibacterial activity against Bacillus cereus MTCC 430 assessed as growth inhibition at 3.12 to 50 ug/mL after 24 hr by agar disk diffusion method
Staphylococcus aureus [25] = test: Antibacterial activity against Staphylococcus aureus MTCC 96 assessed as growth inhibition at 3.12 to 50 ug/mL after 24 hr by agar disk diffusion method
Shigella flexneri [26] = test: Antibacterial activity against Shigella flexneri MTCC 1457 assessed as growth inhibition after 24 hr by agar streak dilution method; conditions: MTCC 1457, 24 h
Proteus vulgaris [27] = test: Antibacterial activity against Proteus vulgaris MTCC 1771 assessed as growth inhibition after 24 hr by agar streak dilution method; conditions: MTCC 1771, 24 h

Row | SMILES | inhibition zone (IZ) (Salmonella typhi [1]) [mm] | inhibition zone (IZ) (Klebsiella pneumoniae [2]) [mm] | MIC (Klebsiella pneumoniae [3]) [µg/mL] | MIC (Salmonella typhi [4]) [µg/mL] | MIC (Pseudomonas aeruginosa [5]) [µg/mL] | MIC (Escherichia coli [6]) [µg/mL] | MIC (Bacillus cereus [7]) [µg/mL] | MIC (Staphylococcus aureus [8]) [µg/mL] | growth inhibition (GI) [9] [%] | MIC [10] [µg/mL] | MIC [11] [µg/mL] | inhibition zone (IZ) (Candida albicans [12]) [mm] | inhibition zone (IZ) (Aspergillus clavatus [13]) [mm] | inhibition zone (IZ) (Aspergillus fumigatus [14]) [mm] | inhibition zone (IZ) (Aspergillus niger [15]) [mm] | MIC (Candida albicans [16]) [µg/mL] | MIC (Aspergillus clavatus [17]) [µg/mL] | MIC (Aspergillus fumigatus [18]) [µg/mL] | MIC (Aspergillus niger [19]) [µg/mL] | inhibition zone (IZ) (Shigella flexneri [20]) [mm] | other results
1 | CC(=O)Nc1ccc(NC(=O)CNc2ccc(-c3nc(N4CC(C)CC(C)C4)nc(N4CC(C)CC(C)C4)n3)cc2)cc1 (stereo not given) | <10 | <10 | 50 (≈ 85.5 µM) | 50 (≈ 85.5 µM) | 50 (≈ 85.5 µM) | 50 (≈ 85.5 µM) | 50 (≈ 85.5 µM) | 50 (≈ 85.5 µM) | 95 | 62.5 (≈ 107 µM) | > 6.25 | 17 | 19 | 12 | 22 | 50 (≈ 85.5 µM) | 50 (≈ 85.5 µM) | 50 (≈ 85.5 µM) | 12.5 (≈ 21.4 µM) | 16 | inhibition zone (IZ) (Proteus vulgaris [21]): 27 mm; inhibition zone (IZ) (Pseudomonas aeruginosa [22]): 19 mm; inhibition zone (IZ) (Escherichia coli [23]): 20 mm; inhibition zone (IZ) (Bacillus cereus [24]): 12 mm; inhibition zone (IZ) (Staphylococcus aureus [25]): <10 mm; MIC (Shigella flexneri [26]): 50 µg/mL (≈ 85.5 µM); MIC (Proteus vulgaris [27]): 6.25 µg/mL (≈ 10.7 µM)
2 | CC1CC(C)CN(c2nc(-c3ccc(NCC(=O)Nc4nc5ccccc5s4)cc3)nc(N3CC(C)CC(C)C3)n2)C1 (stereo not given) | 12 | <10 | 50 (≈ 85.5 µM) | 50 (≈ 85.5 µM) | 50 (≈ 85.5 µM) | 50 (≈ 85.5 µM) | 50 (≈ 85.5 µM) | 50 (≈ 85.5 µM) | 94 | 500 (≈ 855 µM) | > 6.25 | <10 | <10 | <10 | <10 | > 50 | > 50 | > 50 | 50 (≈ 85.5 µM) | <10 | inhibition zone (IZ) (Proteus vulgaris [21]): 18 mm; inhibition zone (IZ) (Pseudomonas aeruginosa [22]): 16 mm; inhibition zone (IZ) (Escherichia coli [23]): 14 mm; inhibition zone (IZ) (Bacillus cereus [24]): 14 mm; inhibition zone (IZ) (Staphylococcus aureus [25]): 16 mm; MIC (Shigella flexneri [26]): 50 µg/mL (≈ 85.5 µM); MIC (Proteus vulgaris [27]): 50 µg/mL (≈ 85.5 µM)
3 | CC1CC(C)CN(c2nc(-c3ccc(NCC(=O)Nc4nc5ccc(Cl)cc5s4)cc3)nc(N3CC(C)CC(C)C3)n2)C1 (stereo not given) | 22 | 23 | 50 (≈ 80.7 µM) | 25 (≈ 40.4 µM) | 25 (≈ 40.4 µM) | 25 (≈ 40.4 µM) | 6.25 (≈ 10.1 µM) | 6.25 (≈ 10.1 µM) | 97 | 62.5 (≈ 101 µM) | > 6.25 | 12 | <10 | <10 | 17 | 50 (≈ 80.7 µM) | > 50 | > 50 | 50 (≈ 80.7 µM) | 26 | inhibition zone (IZ) (Proteus vulgaris [21]): 20 mm; inhibition zone (IZ) (Pseudomonas aeruginosa [22]): 26 mm; inhibition zone (IZ) (Escherichia coli [23]): 21 mm; inhibition zone (IZ) (Bacillus cereus [24]): 27 mm; inhibition zone (IZ) (Staphylococcus aureus [25]): 22 mm; MIC (Shigella flexneri [26]): 6.25 µg/mL (≈ 10.1 µM); MIC (Proteus vulgaris [27]): 50 µg/mL (≈ 80.7 µM)
4 | CC1CC(C)CN(c2nc(-c3ccc(NCC(=O)Nc4nc5ccc(Br)cc5s4)cc3)nc(N3CC(C)CC(C)C3)n2)C1 (stereo not given) | 24 | 11 | 50 (≈ 75.3 µM) | 6.25 (≈ 9.42 µM) | 25 (≈ 37.7 µM) | 12.5 (≈ 18.8 µM) | 6.25 (≈ 9.42 µM) | 1.56 (≈ 2.35 µM) | 99 | 12.5 (≈ 18.8 µM) | > 6.25 | 18 | 26 | 19 | 19 | 50 (≈ 75.3 µM) | 50 (≈ 75.3 µM) | 50 (≈ 75.3 µM) | 50 (≈ 75.3 µM) | 25 | inhibition zone (IZ) (Proteus vulgaris [21]): 23 mm; inhibition zone (IZ) (Pseudomonas aeruginosa [22]): 25 mm; inhibition zone (IZ) (Escherichia coli [23]): 23 mm; inhibition zone (IZ) (Bacillus cereus [24]): 26 mm; inhibition zone (IZ) (Staphylococcus aureus [25]): 25 mm; MIC (Shigella flexneri [26]): 12.5 µg/mL (≈ 18.8 µM); MIC (Proteus vulgaris [27]): 25 µg/mL (≈ 37.7 µM)
5 | CC1CC(C)CN(c2nc(-c3ccc(NCC(=O)Nc4nc5ccc(I)cc5s4)cc3)nc(N3CC(C)CC(C)C3)n2)C1 (stereo not given) | 17 | 12 | 50 (≈ 70.4 µM) | 50 (≈ 70.4 µM) | 50 (≈ 70.4 µM) | 50 (≈ 70.4 µM) | 25 (≈ 35.2 µM) | 12.5 (≈ 17.6 µM) | 96 | 200 (≈ 281 µM) | > 6.25 | 20 | 11 | <10 | <10 | 50 (≈ 70.4 µM) | 50 (≈ 70.4 µM) | > 50 | 50 (≈ 70.4 µM) | 23 | inhibition zone (IZ) (Proteus vulgaris [21]): 26 mm; inhibition zone (IZ) (Pseudomonas aeruginosa [22]): 16 mm; inhibition zone (IZ) (Escherichia coli [23]): 18 mm; inhibition zone (IZ) (Bacillus cereus [24]): 24 mm; inhibition zone (IZ) (Staphylococcus aureus [25]): 21 mm; MIC (Shigella flexneri [26]): 25 µg/mL (≈ 35.2 µM); MIC (Proteus vulgaris [27]): 12.5 µg/mL (≈ 17.6 µM)
